Patent publication US10716769B2 (GUANGZHOU JTREAT BIOSCI. LTD., priority 2015, dated 2020)

Tests used:
Format in all cases: cell-based
[1] = system: human gastric cancer cell line (MCG804); assay: MTT in vitro tumor cell inhibition; conditions: 3 days
From the text: (§1) An effective amount of the above compounds and/or the compositions containing the same used as an active ingredient have an effect on inhibiting the tumor cells. The present invention detects the inhibitory effect of the hydroxy-substituted benzophenone compounds on the proliferation of the in vitro cultured human tumor cells by the methylthiazolyl tetrazolium method.
(§2) The method is used to detect cell viability. […] Particles can be dissolved by dimethyl sulfoxide (DMSO) isopropyl alcohol or 10% acidified SDS (sodium dodecyl sulfate), and a microplate reader is used to measure the OD value at A570 wavelength, which indirectly reflects the number of live cells. The method is used for detection of the cytokines bioactivity, as well as anti-tumor drugs and tumor radiosensitivity and cytotoxicity test, and has the characteristics of being simple, fast, economical, sensitive and accurate and having good reproducibility and no need to use radionuclides. This method has been widely used in screening preclinical anticancer drugs and detecting the drug sensitivity of fresh tumor cells. The method is as below:
(§3) (1) The tumor cell suspension prepared by 0.25% of trypsin digestion and adjusted to a cell concentration of 10^5/ml with RPMI1640 containing 10% fetal calf serum is added to a 96-well plate with 100 μl for each well, cultured 24 hours, and then different dosages of drugs are added with 100 μl/well, for which, the negative control groups, positive control groups and withering wells are set, and 4 parallel wells are set for each group.
(§4) (2) They are continually cultured in incubator containing 5% of CO2 at 37° C. for 24 to 48 hours. MTT solution (5 g/L) is added to each well before the termination of the experiment. The OD value at A570 nm is detected by microplate reader. The OD value at A570 of the negative group without the addition of drugs is taken as a control. The cell survival rate and cell inhibition rate of drugs are calculated according to the following formula: Cell survival rate=(OD value of test group/OD value of control group)×100% Cell inhibition rate (%)=(OD value of the control group−OD value of the test group/(OD value of the control group−OD value of the blank group)
(§5) 1. Tumor cell lines: human glioma cell line (U251), human colon cancer cell line (LOVO), human hepatoma cell line (HepG2), human lung cancer cell line (PC84045), human endometrial carcinoma cell line (JEC), human renal carcinoma (GRC), human gastric cancer cell line (MCG804), human cervical cancer cell line (HeLa), human hepatocellular carcinoma cell line (BEL-7402) and human umbilical vein endothelial cell line (ECV304) purchased from Animal Experimental Center of Zhongshan Medical College, and preserved by the present laboratory.
(§6) The tumor cell lines are cultured in RPMI-1640 medium containing 15% of the newborn bovine serum in a conventional manner, placed in the humidification incubator containing 5% of CO2 for being cultured at 37° C., and are observed for growth by an inverted microscope. A subculture is conducted every about 3-5 days, the cells in logarithmic growth phase are adopted to be digested with 0.25% of trypsin, and the serum-free RPMI-1640 medium is used for culturing the cell suspension; the blood counting plate makes counting, the trypan blue exclusion tests the cell activity, and the cell viability>95% is used for formal tests.
(§7) Liquid preparation: the compounds are labeled with the codes respectively, DMSO is used to dissolve each compound, the bacterial filter is used to remove bacteria, and each compound is prepared into 10^−4 g/ml, 10^−5 g/ml, 10^−6 g/ml and preserved at 4° C. for use. […]

[2] = system: human cervical cancer cell line (HeLa); assay: MTT in vitro tumor cell inhibition; conditions: 3 days
From the text: as §1, §2, §3, §4, §5, §6, §7

[3] = system: human lung cancer cell line (PC84045); assay: MTT in vitro tumor cell inhibition; conditions: 3 days
From the text: as §1, §2, §3, §4, §5, §6, §7

[4] = system: human hepatoma cell line (HepG2); assay: MTT in vitro tumor cell inhibition; conditions: 3 days
From the text: as §1, §2, §3, §4, §5, §6, §7

[5] = system: human colon cancer cell line (LOVO); assay: MTT in vitro tumor cell inhibition; conditions: 3 days; for Inhibitory rate %: 10^−4 g/ml
From the text: as §1, §2, §3, §4, §5, §6, §7

[6] = system: human glioma cell line (U251); assay: MTT in vitro tumor cell inhibition; conditions: 3 days
From the text: as §1, §2, §3, §4, §5, §6, §7

[7] = system: human endometrial carcinoma cell line (JEC); assay: MTT in vitro tumor cell inhibition; conditions: 3 days
From the text: as §1, §2, §3, §4, §5, §6, §7

[8] = system: MCF7; assay: MTT in vitro tumor cell inhibition; conditions: 3 days
From the text: as §1, §2, §3, §4, §6
Liquid preparation: the compounds are labeled with the codes respectively, DMSO is used to dissolve each compound, the bacterial filter is used to remove bacteria, and each compound is prepared into 10^−4 g/ml, 10^−5 g/ml, 10^−6 g/ml and preserved at 4° C. for use.
MTT method: a bottle of 4-5 days old cells in the exponential growth phase are adopted to be cultured, and added with an appropriate amount of Trypsin-EDTA solution, so as to enable the adherent cells to fall off, and are prepared with 10 ml of RPMI-1640 medium containing 15% newborn bovine serum into suspensions; after stained with trypan blue, the cell number is counted on the blood counting plate to ensure that the live cells is more than 97%; the cell suspensions are diluted by the complete medium so that each […] of solution contains 5000-400000 cells; the 96-well plate is used with 200 μl of cell suspensions added into each. The 96-well plate is placed at 37° C. in 5% of CO2 containing incubator for 24 hours; the test compounds are diluted at 3 dilutions with 5 wells in parallel for each concentration; the serum-free RPMI1640 is used as the control group. […]

[9] = system: human umbilical vein endothelial cell line (ECV304); assay: MTT in vitro cell inhibition; conditions: 3 days
From the text: as §1, §2, §3, §4, §5, §6, §7

SMILES	Inhibitory rate % ([1]; MCG804, 10^−4 g/ml)	Inhibitory rate % ([2]; 10^−4 g/ml)	Inhibitory rate % ([3]; PC84045, 10^−4 g/ml)	Inhibitory rate % ([3]; PC84045, 10^−5 g/ml)	Inhibitory rate % ([3]; PC84045, 10^−6 g/ml)	Inhibitory rate % ([4]; HepG2, 10^−4 g/ml)	Inhibitory rate % ([4]; HepG2, 10^−5 g/ml)	Inhibitory rate % [5]	Inhibitory rate, sensitivity class ([5]; 10^−5 g/ml)	Inhibitory rate, sensitivity class ([5]; 10^−6 g/ml)	Inhibitory rate % ([6]; U251, 10^−4 g/ml)	Inhibitory rate % ([7]; 10^−4 g/ml)	Inhibitory rate % ([7]; 10^−5 g/ml)	Inhibitory rate % ([8]; MCF7, 10^−4 g/ml)	Inhibitory rate % ([9]; ECV304, 10^−4 g/ml)	Inhibitory rate % ([9]; ECV304, 10^−5 g/ml)	other results
O=C(c1ccc(O)c(O)c1)c1cc(O)c(O)c(O)c1O [2,3,3′,4,4′,5-hexahydroxybenzophenone]	71.91%	58.94%	80.43%	70.86%	41.369%	77.03%	55.49%	75.61%	insensitive (<30% means insensitive)	insensitive (<30% means insensitive)	64.27%	79.84%	32.36%	65.36%	70.81%	43.47%	Inhibitory rate, sensitivity class ([1]; MCG804, 10^−5 g/ml): insensitive (<30% means insensitive); Inhibitory rate, sensitivity class ([1]; MCG804, 10^−6 g/ml): insensitive (<30% means insensitive); Inhibitory rate, sensitivity class ([2]; 10^−5 g/ml): insensitive (<30% means insensitive); Inhibitory rate, sensitivity class ([2]; 10^−6 g/ml): insensitive (<30% means insensitive); Inhibitory rate, sensitivity class ([4]; HepG2, 10^−6 g/ml): insensitive (<30% means insensitive); Inhibitory rate, sensitivity class ([6]; U251, 10^−5 g/ml): insensitive (<30% means insensitive); Inhibitory rate, sensitivity class ([6]; U251, 10^−6 g/ml): insensitive (<30% means insensitive); Inhibitory rate, sensitivity class ([7]; 10^−6 g/ml): insensitive (<30% means insensitive); Inhibitory rate, sensitivity class ([8]; MCF7, 10^−5 g/ml): insensitive (<30% means insensitive); Inhibitory rate, sensitivity class ([8]; MCF7, 10^−6 g/ml): insensitive (<30% means insensitive); Inhibitory rate, sensitivity class ([9]; ECV304, 10^−6 g/ml): insensitive (<30% means insensitive)
O=C(c1ccccc1)c1ccc(O)cc1O [2,4-dihydroxybenzophenone]	92.54%	95.65%	92.65%	89.88%	44.39%	94.78%	66.74%	93.80%	insensitive (<30% means insensitive)	insensitive (<30% means insensitive)	85.31%	93.58%	62.30%	87.60%	96.17%	73.12%	Inhibitory rate % ([1]; MCG804, 10^−5 g/ml): 86.35%; Inhibitory rate % ([1]; MCG804, 10^−6 g/ml): 41.35%; Inhibitory rate % ([2]; 10^−5 g/ml): 48.96%; Inhibitory rate % ([2]; 10^−6 g/ml): 37.32%; Inhibitory rate % ([4]; HepG2, 10^−6 g/ml): 58.63%; Inhibitory rate % ([6]; U251, 10^−5 g/ml): 67.25%; Inhibitory rate % ([6]; U251, 10^−6 g/ml): 31.21%; Inhibitory rate % ([7]; 10^−6 g/ml): 32.56%; Inhibitory rate % ([8]; MCF7, 10^−5 g/ml): 68.62%; Inhibitory rate % ([8]; MCF7, 10^−6 g/ml): 28.57%; Inhibitory rate % ([9]; ECV304, 10^−6 g/ml): 45.37%
